Measured values published in PMC6943742, “Peptide/Peptoid Hybrid Oligomers: The Influence of Hydrophobicity and Relative Side-Chain Length on Antibacterial Activity and Cell Selectivity” (Molecules, 2019).
Values after ≈ are worked out from the molar mass of the structure shown. Non-standard residues stand in square brackets, D forms with d. Residues, ends and D or L forms follow the SMILES beside them. Gly(NCH2CH2Ph) = O=C(O)CNCCc1ccccc1; Gly(N-2-aminoethyl) = NCCNCC(=O)O; hPhe = N[C@@H](CCc1ccccc1)C(=O)O; Gly(N(CH2)3NH2) = NCCCNCC(=O)O; hLys = NCCCCC[C@H](N)C(=O)O; Nphe = O=C(O)CNCc1ccccc1; Orn = NCCC[C@H](N)C(=O)O; Nlys = NCCCCNCC(=O)O

Experiments:
[1] = Relative hydrophobicity by RP-HPLC (% MeCN at peak elution); assay type: physicochemical; conditions: RP-HPLC gradient 0 → 60% B during 10 min; % MeCN at peak elution calculated from retention time
Description: The relative hydrophobicity of each peptidomimetic was measured by reverse-phase high-performance liquid chromatography (RP-HPLC). Typically, the RP-HPLC retention time (or percentage acetonitrile at peak elution) constitutes the preferred measure that allows for comparison of relative hydrophobicity, while log P values of polycationic peptides or peptidomimetics normally are considered unsuitable due to the extreme hydrophilic nature of such compounds [11, 45, 57, 58, 59, 60]. […] For both subgroups III (with cationic amino acid residues and the peptoid analogue of Phe, NPhe, i.e., 9–12) and IV (with cationic amino acid residues and the peptoid analogue of hPhe, NhPhe, i.e., 13–16) only minor differences in hydrophobicity were seen. These observations infer that, when the cationic residues are of a peptoid nature, the side-chain length of these has a […] influence on the hydrophobicity. […] Thus, introduction of additional six methylene groups results, as expected, in increased hydrophobicity.
Starting materials and solvents were purchased from commercial suppliers (Iris Biotech, Markredwitz, Germany; Fluorochem, Hadfield, United Kingdom; and Merck, Darmstadt, Germany) and used without further purification. Water used for analytical and preparative high-performance liquid chromatography (HPLC) was filtered through a 0.22-μm Millipore membrane filter. Purity and retention time of each peptidomimetic were determined by analytical UHPLC by using a Phenomenex Luna C18(2) HST column (100 mm × 3 mm; particle size: 2.5 μm; pore size: 100 Å) on a Shimadzu Prominence and Shimadzu Nexera system using an aqueous acetonitrile (MeCN) gradient with 0.1% trifluoroacetic acid (TFA) added (eluent A: 5:95 MeCN–H2O + 0.1% TFA, eluent B: 95:5 MeCN–H2O + 0.1% TFA); a flow rate of 0.5 mL/min was used. For elution of peptidomimetics, a linear gradient of 0% to 60% B during 10 min was used with UV detection at λ = 220 nm. […] For each peptidomimetic, the percentage of MeCN at peak elution was calculated from the retention time by using the following formula:(1) %MeCN = 0.95 (0.6Rt/10 min.) + 0.05 (1−0.6Rt/10 min.).

A. baumannii ATCC 19606 = assay type: cell-based; conditions: ATCC 19606, 20 h
Description: (§1) MIC values were evaluated by using the modified Hancock lab protocol in non-binding polystyrene microtitre plates, with bacterial suspensions of ∼2 × 10^5 CFU/mL in Mueller-Hinton broth (Difco, Sparks MD, USA), with Mg^2+ and Ca^2+ concentrations of 4 mg/L each. The compounds were dissolved in H2O and diluted in 0.01% acetic acid, 0.2% BSA (final concentration). Aliquots of 11 µL of 10 × test compounds were then transferred to the appropriate wells with bacterial suspensions. For preparation and transfer of the solutions of the compounds, low-binding sterile tubes and tips (Axygen, Union City CA, USA) were used. After 20 h incubation of covered plates at 35 °C (±2 °C) with circular shaking at 220 rpm, the MICs were read. The antibacterial activity of peptidomimetics was tested against E. coli ATCC 25922, K. pneumoniae ATCC 13883, P. aeruginosa ATCC 27853, P. aeruginosa PAO1, A. baumannii ATCC 19606, S. aureus ATCC 29213, and E. faecalis ATCC 29212.

E. coli ATCC 25922 = assay type: cell-based; conditions: ATCC 25922, 20 h
Description: as §1

E. faecalis ATCC 29212 = assay type: cell-based; conditions: ATCC 29212, 20 h
Description: as §1

K. pneumoniae ATCC 13883 = assay type: cell-based; conditions: ATCC 13883, 20 h
Description: as §1

P. aeruginosa ATCC 27853 = assay type: cell-based; conditions: ATCC 27853, 20 h
Description: as §1

P. aeruginosa PAO1 = assay type: cell-based; conditions: PAO1, 20 h
Description: as §1

S. aureus ATCC 29213 = assay type: cell-based; conditions: for MIC: ATCC 29213, 20 h
Description: as §1

[2] = tested on: HepG2 cell line ATCC HB-8065; test: in vitro; assay type: cell-based; conditions: 48 h
Description: (§2) Side effects affecting cell viability were estimated on the HepG2 cell line ATCC HB-8065. In brief, HepG2 cells were seeded in flat-bottomed 96-well plates at a concentration of 5000 cells per well. At 80−90% confluency, the cells were incubated for 24 h in a humidified incubator (5% CO2, 37 °C). The medium was removed, and the cells were incubated for 48 h in a humidified incubator (5% CO2, 37 °C) with compounds in two-fold serial dilutions. An MTT assay was then performed as previously described. In brief, after incubation with the test compounds, the culture medium was removed and fresh medium with 0.2 mg/mL MTT was added in each well of the plate. After incubation (3 h, 37 °C, 5% CO2), the medium with MTT was removed, and 200 μL dimethyl sulfoxide were added at once to each sample. Absorbance of MTT was measured using spectrophotometer TECAN Infinite M1000 at 540 nm. The relative viability was calculated by using the formula: ODtreated cells × 100/ODcontrol cells. The IC50 values are calculated by using the program Graph Pad Prism® 5.0. For all compounds, the test range was 10–1280 μg/mL.

in vitro [3] = assay type: cell-based; conditions: human, Hemolytic Activity (percentage hemolysis)
Description: The lysis of human red blood cells was measured as previously described, with modifications. In brief, freshly drawn human red blood cells (hRBCs) were washed three times with PBS buffer and centrifuged two times for 5 min at 2500 rpm. A two-fold serial dilution of peptidomimetics in PBS buffer was added to each well in a sterile polypropylene V-bottom 96-well plate to the total volume of 75 μL. A 0.5% v/v hRBC suspension (75 μL in PBS buffer) was added to each well to reach a final volume of 150 μL in each well. The plate was incubated (37 °C) for 60 min, and then the cells were subsequently pelleted by centrifugation at 1000 rpm for 5 min. The supernatants (50 μL) were transferred to clear, flat-bottomed plastic 96-well plates. The concentration of hemoglobin was detected by measuring the OD at 405 nm. The OD of cells incubated with 0.1% SDS defined 100% hemolysis, while the OD of cells incubated with PBS buffer defined 0% hemolysis. The concentrations tested were 200, 400, and 800 μg/mL (only average values for the highest concentration are stated in Table 2).

in vitro [4] = assay type: cell-based; conditions: human
Description: as §2

Row | SMILES | Hydrophobicity (% MeCN at elution) [1] [%] | MIC (A. baumannii ATCC 19606) [µg/mL] | MIC (E. coli ATCC 25922) [µg/mL] | MIC (E. faecalis ATCC 29212) [µg/mL] | MIC (K. pneumoniae ATCC 13883) [µg/mL] | MIC (P. aeruginosa ATCC 27853) [µg/mL] | MIC (P. aeruginosa PAO1) [µg/mL] | MIC (S. aureus ATCC 29213) [µg/mL] | Activity against S. aureus (in words) (S. aureus ATCC 29213; S. aureus) | IC50 for inhibiting growth of HepG2 cells [2] [µg/mL] | hemolysis at 60 min, 800 µg/mL (in vitro [3]) [%] | viability at 48 h, 1280 µg/mL (in vitro [4]) [%]
1 | NCCCNCC(=O)N[C@@H](CCc1ccccc1)C(=O)N(CCCN)CC(=O)N[C@@H](CCc1ccccc1)C(=O)N(CCCN)CC(=O)N[C@@H](CCc1ccccc1)C(=O)N(CCCN)CC(=O)N[C@@H](CCc1ccccc1)C(=O)N(CCCN)CC(=O)N[C@@H](CCc1ccccc1)C(=O)N(CCCN)CC(=O)N[C@@H](CCc1ccccc1)C(N)=O [Peptidomimetic 6] (H-[Gly(N(CH2)3NH2)][hPhe][Gly(N(CH2)3NH2)][hPhe][Gly(N(CH2)3NH2)][hPhe][Gly(N(CH2)3NH2)][hPhe][Gly(N(CH2)3NH2)][hPhe][Gly(N(CH2)3NH2)][hPhe]-NH2) | 41.2 | >64 | 4 (≈ 2.4 µM) | >64 | >64 | 8 (≈ 4.79 µM) | 16 to 32 | 16 (≈ 9.59 µM) | moderate activity | 456 | 8 | 
2 | NCCNCC(=O)N[C@@H](Cc1ccccc1)C(=O)N(CCN)CC(=O)N[C@@H](Cc1ccccc1)C(=O)N(CCN)CC(=O)N[C@@H](Cc1ccccc1)C(=O)N(CCN)CC(=O)N[C@@H](Cc1ccccc1)C(=O)N(CCN)CC(=O)N[C@@H](Cc1ccccc1)C(=O)N(CCN)CC(=O)N[C@@H](Cc1ccccc1)C(N)=O [Peptidomimetic 1] (H-[Gly(N-2-aminoethyl)]F[Gly(N-2-aminoethyl)]F[Gly(N-2-aminoethyl)]F[Gly(N-2-aminoethyl)]F[Gly(N-2-aminoethyl)]F[Gly(N-2-aminoethyl)]F-NH2) | 37.5 | >64 | 4 to 8 | >64 | 64 (≈ 42.6 µM) | 64 (≈ 42.6 µM) | >64 | >64 |  | 1280 | 7 | 49
3 | NCCCCC[C@H](NC(=O)CN(Cc1ccccc1)C(=O)[C@H](CCCCCN)NC(=O)CN(Cc1ccccc1)C(=O)[C@H](CCCCCN)NC(=O)CN(Cc1ccccc1)C(=O)[C@H](CCCCCN)NC(=O)CN(Cc1ccccc1)C(=O)[C@H](CCCCCN)NC(=O)CN(Cc1ccccc1)C(=O)[C@@H](N)CCCCCN)C(=O)N(CC(N)=O)Cc1ccccc1 [Peptidomimetic 12] (H-[hLys][Nphe][hLys][Nphe][hLys][Nphe][hLys][Nphe][hLys][Nphe][hLys][Nphe]-NH2) | 38.0 |  | 2 (≈ 1.14 µM) | >64 | >64 | 64 (≈ 36.5 µM) | 64 (≈ 36.5 µM) | >64 |  | 1280 | 9 | 47
4 | NCCC[C@H](NC(=O)CN(CCc1ccccc1)C(=O)[C@H](CCCN)NC(=O)CN(CCc1ccccc1)C(=O)[C@H](CCCN)NC(=O)CN(CCc1ccccc1)C(=O)[C@H](CCCN)NC(=O)CN(CCc1ccccc1)C(=O)[C@H](CCCN)NC(=O)CN(CCc1ccccc1)C(=O)[C@@H](N)CCCN)C(=O)N(CCc1ccccc1)CC(N)=O [Peptidomimetic 14] (H-[Orn][Gly(NCH2CH2Ph)][Orn][Gly(NCH2CH2Ph)][Orn][Gly(NCH2CH2Ph)][Orn][Gly(NCH2CH2Ph)][Orn][Gly(NCH2CH2Ph)][Orn][Gly(NCH2CH2Ph)]-NH2) | 40.5 | >64 | 4 to 8 | >64 | 32 (≈ 19.2 µM) | 8 (≈ 4.79 µM) | 8 to 16 | >64 |  | 684 | 11 | 
5 | NCCCCNCC(=O)N[C@@H](CCc1ccccc1)C(=O)N(CCCCN)CC(=O)N[C@@H](CCc1ccccc1)C(=O)N(CCCCN)CC(=O)N[C@@H](CCc1ccccc1)C(=O)N(CCCCN)CC(=O)N[C@@H](CCc1ccccc1)C(=O)N(CCCCN)CC(=O)N[C@@H](CCc1ccccc1)C(=O)N(CCCCN)CC(=O)N[C@@H](CCc1ccccc1)C(N)=O [Peptidomimetic 7] (H-[Nlys][hPhe][Nlys][hPhe][Nlys][hPhe][Nlys][hPhe][Nlys][hPhe][Nlys][hPhe]-NH2) | 40.6 | >64 | 2 to 4 | >64 | >64 | 32 (≈ 18.3 µM) | 32 to 64 | >64 |  | 720 | 6 | 
6 | NCCCC[C@H](NC(=O)CN(CCc1ccccc1)C(=O)[C@H](CCCCN)NC(=O)CN(CCc1ccccc1)C(=O)[C@H](CCCCN)NC(=O)CN(CCc1ccccc1)C(=O)[C@H](CCCCN)NC(=O)CN(CCc1ccccc1)C(=O)[C@H](CCCCN)NC(=O)CN(CCc1ccccc1)C(=O)[C@@H](N)CCCCN)C(=O)N(CCc1ccccc1)CC(N)=O [Peptidomimetic 15] (H-K[Gly(NCH2CH2Ph)]K[Gly(NCH2CH2Ph)]K[Gly(NCH2CH2Ph)]K[Gly(NCH2CH2Ph)]K[Gly(NCH2CH2Ph)]K[Gly(NCH2CH2Ph)]-NH2) | 40.5 | 64 (≈ 36.5 µM) | 4 (≈ 2.28 µM) | >64 | >64 | 16 (≈ 9.13 µM) | 8 to 16 | >64 |  | 595 | 8 | 
